For assay [1], the system named is HOP-62 NSCLC. The assay can be described thus: growth of human tumour cells (NCI), 48 h.
Assay [2] has as its system KM12 colon. The assay can be described thus: growth of human tumour cells (NCI), 48 h.

“And” between values parts separate entries of the source, which are not always exact repeats. Equal entries are not always repeated.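 96-well plates; 48 h exposure; 5 concentrations. Endpoints by linear interpolation between flanking doses. Not reached: highest tested concentration assigned. Here, GI50 denotes the concentration required for 50% inhibition of growth. TGI: concentration producing complete growth inhibition.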

Consider 54 molecules from PubChem BioAssay (NCI).

Consider `O=C1CC2SC(COCc3ccccc3)(CCN2Cc2ccccc2)C1` (stereo not drawn), for which the TGI in assay [1] and in assay [2] was greater than 100 µM each time.

For `CC(O)[C@@]1(c2ccccc2)CC2(CCN(C)CC2)O[C@H]1C` (stereo partly drawn), the TGI in assay [1] and in assay [2] was greater than 100 µM throughout.

Turning to `N/C(=N\S(=O)(=O)c1cc(Cl)c(Oc2ccc([N+](=O)[O-])cc2Cl)c(Cl)c1)Nc1ccc(Cl)cc1`, in assay [2], the TGI stood at 36.6 µM.

Take `CC(=O)OCC1OC(n2nc(Cc3ccccc3)c(=S)[nH]c2=S)C(OC(C)=O)C(OC(C)=O)C1OC(C)=O` (stereo not drawn): the TGI was 51.4 µM in assay [1] and 40.2 µM in assay [2].

For the molecule `c1ccc([P+](c2ccccc2)(c2ccccc2)C2c3ccccc3-c3ccccc32)cc1`, the TGI in assay [1] turned out to be 4.7 µM.

Take `O=Nc1c(O)cc(Nc2cccnc2)c2ccccc12`: the values for the TGI in assay [1] and in assay [2] were greater than 100 µM and 90.6 µM, respectively.

As to `COc1cc(/C=N/NC2=NCCCCN2)ccc1O`, the TGI in assay [1] and in assay [2] was greater than 100 µM throughout.

For `C/C(Cc1ccc2c(c1)OCO2)=N\NC(=O)C(C)Sc1nnc(SC(C)C(=O)N/N=C(\C)Cc2ccc3c(c2)OCO3)s1` (stereo not drawn), the TGI in assay [1] and in assay [2] was greater than 100 µM throughout.

Turning to `CN(CCCn1ccnc1[N+](=O)[O-])CCCn1ccnc1[N+](=O)[O-]`, the TGI in assay [1] and in assay [2] was greater than 100 µM throughout.

On to `O=C(N/N=C/C=C/c1ccc([N+](=O)[O-])o1)c1ccc(C(=O)N/N=C/C=C/c2ccc([N+](=O)[O-])o2)cc1`, for which the TGI in assay [1] and in assay [2] was greater than 100 µM throughout.

As to `CCOC(=O)C(Cc1ccc(N(CCCl)CCCl)cc1)NC(=O)CCCN1C(=O)CN=C(c2ccccc2)c2cc(Cl)ccc21` (stereo not drawn), the TGI in assay [1] and in assay [2] was greater than 100 µM each time.

Take `C#CC1NC(=O)C1N(CC)CC` (stereo not drawn): the TGI in assay [1] and in assay [2] was greater than 100 µM each time.

`O=c1oc2ccc([N+](=O)[O-])cc2cc1Br`: the TGI in assay [1] and in assay [2] was greater than 100 µM throughout.

For the molecule `O=C1C(S(=O)(=O)c2ccccc2)=C(CS(=O)(=O)c2ccccc2)[C@@H](OCc2ccccc2)[C@@H]1OCc1ccccc1`, the TGI in assay [1] came to 53.2 µM; in assay [2], 27.4 µM.

With `CN(C)c1ccc(/C=C/c2cc(-c3ccccc3)[n+](C)n2-c2ccccc2)cc1`, the figures for the TGI in assay [1] and in assay [2] were 12.4 µM and 3.07 µM, respectively.

`CNC(=O)NS(=O)(=O)c1ccc(C)cc1`: the TGI in assay [1] and in assay [2] was greater than 100 µM in each case.

As for `CCCCC(=O)Nc1ccc2c(C)cc(-c3ccc(-c4cc(-c5ccc(C)cc5)cc(-c5ccc(-c6cc(C)c7ccc(NC(=O)CCCC)nc7n6)cc5)n4)cc3)nc2n1`, the TGI in assay [1] and in assay [2] was greater than 100 µM in each case.

Turning to `COc1cc2ccc1OCc1cccc(n1)COc1ccc(cc1OC)C=NCCNCCN=C2`, the TGI in assay [1] is greater than 100 µM.

On to `CC1=NN(c2nc(N)nc(/C(C#N)=C\c3cccc([N+](=O)[O-])c3)n2)C(C)(C)C1`, for which the TGI in assay [1] is 43.8 µM; in assay [2] it was greater than 48.1 µM.

In the case of `Cc1ccc(N2C(N)=C(C#N)C(C#N)(C#N)C2c2ccccc2)cc1` (stereo not drawn), the TGI in assay [1] turned out to be 36.9 µM; in assay [2], 33.6 µM.

Consider `COc1ccc(/C(=N\Nc2ccccn2)c2ccccn2)cc1`, for which the TGI in assay [1] is 10.4 µM; in assay [2] it was greater than 32.3 µM.

In the case of `O=C1c2ccccc2C(=O)c2c(NCCCN3CCOCC3)ccc(NCCCN3CCOCC3)c21`, the TGI in assay [1] came out at 13.1 µM; in assay [2], 20.5 µM.

Take `CC1CN=C(Nc2ccc(F)c(Cl)c2)S1` (stereo not drawn): the TGI in assay [1] and in assay [2] was greater than 100 µM throughout.

As to `Cc1cccc2c1c(=O)c1c(O)cc(O)cc1n2C`, the TGI in assay [1] and in assay [2] was greater than 100 µM throughout.

On to `S=C(N1CCN(c2ccccc2)CC1)N1CCN(c2ccccc2)CC1`, for which the TGI in assay [1] and in assay [2] was greater than 100 µM in each case.

`CCCCc1ccc(C#CC#Cc2ccc(CCCC)s2)s1`: the TGI in assay [1] and in assay [2] was greater than 100 µM each time.

Take `CCCNC(=O)N1CC(CN2CCN(c3ccccc3)CC2)O/C1=N/C(=O)Nc1ccccc1` (stereo not drawn): the TGI in assay [1] and in assay [2] was greater than 100 µM throughout.

On to `COC(=O)/C(C#N)=C(\N)c1c(C)c2ccccc2oc1=N`, for which the TGI in assay [1] and in assay [2] was greater than 100 µM throughout.

Turning to `CCCNC(=O)N(C)C(=O)N1N=C(c2ccccc2)C1c1ccccc1` (stereo not drawn), the TGI in assay [1] and in assay [2] was greater than 100 µM in each case.

For the molecule `Cc1nnc(Sc2nc(C#N)c(C#N)nc2Sc2nnc(C)s2)s1`, the TGI was greater than 74.3 µM in assay [1] and greater than 72 µM in assay [2].

`CC(C)[C@@H](C)[C@@]1(C)C[C@@H]1[C@@H](C)[C@H]1CC[C@@H]([C@@H]2CC=C3C[C@@H](O)CC[C@]3(C)C2=O)[C@]1(C)CCO`: the figures for the TGI in assay [1] and in assay [2] were 31.2 µM and 13 µM, respectively.

In assay [2], `S=C=NC1CCC(c2cc3ccccc3s2)(N2CCCCC2)CC1` (stereo not drawn) yielded a TGI of 3.95 µM.

`CC(=O)/C(C=Nc1c(C)n(C)n(C)c1=O)=C(/O)c1ccccc1` returned a TGI in assay [1] greater than 50 µM.

`COc1cc2c[n+](C)c3c4cc(OC)c(OC)cc4ccc3c2cc1OC` had a TGI in assay [1] greater than 100 µM. Besides, in assay [2], the GI50 was > 100 µM and 33.3 µM; the TGI is greater than 100 µM.

As to `COC(=O)C1=NN2c3ccccc3CN([C@@H](C)c3ccccc3)C(=O)[C@@H]2[C@H]1c1ccccc1`, the TGI in assay [1] and in assay [2] was greater than 100 µM throughout.

With `COC1CC(O[C@H]2CC[C@@]3(C)[C@@H](CC[C@]4(O)[C@@H]3CC[C@]3(C)[C@@H](C(C)=O)[C@H](OC(=O)CC(C)C)[C@@H](OC(=O)c5ccccc5)[C@@]34O)C2)OC(C)C1OC1CC(OC)C(OC2OC(C)C(O)C(OC)C2O)C(C)O1` (stereo partly drawn), the TGI in assay [1] and in assay [2] was greater than 25 µM in each case.

For `CC[C@H](C)[C@H](NC(=O)[C@@]1(O)[C@H](O)[C@]2(CC)C=CCN3CC[C@@]4(c5cc(Br)c(OC)cc5N(C)[C@@H]14)[C@@H]32)C(=O)OC`, the TGI in assay [1] and in assay [2] was greater than 100 µM in each case.

For the molecule `O=c1c2ccccc2[nH]c2c(Cl)cc(Cl)c(N3CCCCC3)c12`, the results for the TGI in assay [1] and in assay [2] were greater than 100 µM and 54.9 µM, respectively.

For the molecule `c1ccc([P+](CCCCCC[P+](c2ccccc2)(c2ccccc2)c2ccccc2)(c2ccccc2)c2ccccc2)cc1`, the TGI in assay [1] is greater than 100 µM; in assay [2] it was 63.2 µM.

With `COC1/C=C/C(C)C(C(C)C(OC)C(C)CCC(=O)C(C)C(CC(=O)O)OC)OC(=O)/C=C/C=C(\C)CC(OC)CC2=CC(=O)O[C@H](C2)C(C)C(OC)CC(OC)/C=C/C(C)C(OC)C1` (stereo partly drawn), the TGI in assay [1] and in assay [2] was greater than 4.35 µM each time.

As for `N#Cc1c(N2CCN(c3ccc([N+](=O)[O-])cc3)CC2)[n+](=O)c2ccccc2n1[O-]`, the TGI in assay [1] and in assay [2] was greater than 100 µM each time.

As for `Nc1nc(=S)n(-c2ccc(Cl)cc2)c2nc3ccccc3cc12`, the TGI in assay [1] and in assay [2] was greater than 100 µM throughout.

On to `CC1=CCC2CC1NC(=O)CCOCCC(=O)NC2(C)C` (stereo not drawn), for which the TGI in assay [2] is greater than 100 µM.

With `CCOC(=O)c1cc(C2CCN(Cc3ccccc3)C2=S)c(C(=O)C=[N+]=[N-])[nH]1` (stereo not drawn), the TGI in assay [1] and in assay [2] was greater than 100 µM throughout.

`O=C1/C(=C/c2ccc(Cl)cc2)CSC/C1=C\c1ccc(Cl)cc1`: the TGI in assay [1] is 16.2 µM; in assay [2], 4.47 µM.

As to `COC(=O)C1=C(CCC[C@H](C)O[Si](C)(C)C(C)(C)C)NC(=O)N2[C@@H](CCO)CC[C@H]12`, the results for the TGI in assay [1] and in assay [2] were 27.7 µM and 51.2 µM, respectively.

For `COc1cc(C2c3c(ccc4ccccc34)C(=O)C3CCC(=O)N32)cc(OC)c1O` (stereo not drawn), the TGI in assay [1] and in assay [2] was greater than 25 µM each time.

For `O=c1oc2ccc3ccccc3c2cc1-c1nc2ccc([N+](=O)[O-])cc2o1`, the TGI in assay [1] is greater than 45.2 µM; in assay [2], greater than 100 µM.

As for `N#Cc1c(O)c2ccccc2[nH]c1=O`, the TGI in assay [1] and in assay [2] was greater than 100 µM in each case.

For the molecule `CC1(C)C2CCC(O)(C2)C1N` (stereo not drawn), the TGI in assay [1] and in assay [2] was greater than 100 µM throughout.

On to `NC(Cc1ccc(B(O)O)cc1)C(=O)NC(CO)CO` (stereo not drawn), for which the TGI in assay [1] and in assay [2] was greater than 100 µM in each case.

In the case of `Cc1csc(NNC(=O)Nc2ccccc2)n1`, the TGI in assay [1] and in assay [2] was greater than 100 µM in each case.

With `Clc1c2ccccc2nc2c1[nH]c1ccccc12`, the TGI in assay [1] was greater than 100 µM; in assay [2] it was 22.2 µM.

Take `COC1=CC(=O)C2=C(C[C@@]3(C)C(=C2)C(CO)=CC[C@H]3O)C1=O`: the TGI in assay [1] was 49.6 µM; in assay [2], greater than 100 µM.
